Experimental data: patent US20210187008A1, “USE OF ACANTHOPANAX TRIFOLIATUS POLYSACCHARIDE ATP1-1 IN PREPARATION OF DRUGS FOR TREATMENT OF DIABETES” (GUANGDONG PHARMACEUTICAL UNIVERSITY, priority 2019, published 2021)

Legend:
Type in all cases: in vivo
[1] = tested on: STZ-induced diabetic mice; experiment: Body weight of STZ-induced diabetic mice; details: for Body Weight: dimethylbiguanide 185 mg/kg intragastric
Method: (§1) After 70 mice were adaptively fed for 3 days, they were fasted and kept feeding water for 12 hours, 0.1 mol/L STZ-streptozotocin solution was injected intraperitoneally, the injection volume was 60 mg/kg, and the injection was continued for 5 days. Seven days after the injection, the mice were fasted and kept feeding water for 8 hours, and the tail was cut to collect blood and the fasting blood glucose of the mice was measured. The model was considered as a successful model with a blood glucose concentration greater than 16.5 mmol/L. Diabetic mice successfully modeled (50) were randomly divided into 5 groups, namely: a high glucose model group, a dimethylbiguanid group (185 mg/kg), ATP1-1 high dose group (140 mg/kg), ATP1-1 medium dose group (70 mg/kg), ATP1-1 low dose group (35 mg/kg), 10 mice in each group, and 10 normal mice were randomly selected as a normal control group. All groups were administrated by intragastric administration, and the normal control group and high glucose model group were administrated the same amount of distilled water. after the successful modelling, the body weight, diet and water consumption and blood glucose of the mice before administration and 1, 2, 3, 4, 5, and 6 weeks after administration were measured, and the glucose tolerance was measured at the end of the experiment.

diabetic mice [2] = experiment: Diet and water consumption of diabetic mice; details: dimethylbiguanide 185 mg/kg, during the administration period, P<0.01
Method: as §1

diabetic mice [3] = experiment: Fasting blood glucose in diabetic mice; details: dimethylbiguanide 185 mg/kg
Method: as §1

**Q.** What does the source list for `CN(C)C(=N)NC(=N)N` [Dimethylbiguanide, dimethylbiguanide]?
**A.** Body Weight ([1]; Week 0 (before administration), x±s, n=8): 19.48 ± .78 g; Body Weight ([1]; Week 1): 19.72 ± .77 g; Body Weight ([1]; Week 2): 20.40 ± .78 g; Body Weight ([1]; Week 3): 20.94 ± .73 g; Body Weight ([1]; Week 4): 21.49 ± .84 g; Body Weight ([1]; Week 5): 21.70 ± .90 g; Body Weight ([1]; Week 6): 21.89 ± .89 g; body weight compared with high glucose model group ([1]; dimethylbiguanide 185 mg/kg, after 6 weeks of administration, P<0.05): significantly higher; diet and water consumption compared with high glucose model group (diabetic mice [2]): significantly reduced; fasting blood sugar compared with high glucose group (diabetic mice [3]; after three weeks of administration, P<0.05): significantly different; blood glucose inhibition rate (diabetic mice [3]; at the end of the administration (6 weeks)): 46.9%
